Data from PubChem BioAssay AID2060356 (Molecular Pharmacology Branch, DTP, NCI, 2025).
Where “and” joins values, the source holds several entries; their conditions need not be identical. Identical values can stand only once.

Test system: PDC tumor spheroids with HUVEC/MSC, viability
Assay: Anticancer human tumor 439559-082-T-J2-PDC patient-derived colon adenocarcinoma cell line growth inhibition [TAK]
Conditions: for viability, T/C: stronger effect = lower value
In short: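 Tumor cells were grown as spheroids with HUVEC and hMSC (60:25:15) and treated with targeted agents combined with TAK-243 or ipatasertib. Drugs were tested in half-log steps down from near the clinical Cmax, or from 10 microM where Cmax was unknown.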
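Further: spheroids exposed to drugs for seven days before readout.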

## CC(=O)Nc1cccc(-n2c(=O)n(C3CC3)c(=O)c3c(Nc4ccc(I)cc4F)n(C)c(=O)c(C)c32)c1 + CC(C)NCC(C(=O)N1CCN(c2ncnc3c2C(C)CC3O)CC1)c1ccc(Cl)cc1
Curve of first compound, second compound 0.3 µM
  IC50: > 30 nM
Curve of first compound, second compound 0.949 µM
  IC50: > 30 nM
Curve of first compound, second compound 3 µM
  IC50: > 30 nM
Curve of first compound, second compound 9.49 µM
  IC50: > 30 nM
Curve of first compound, second compound 30 µM
  IC50: > 30 nM
Second compound 0.3 µM, first compound 94.9 pM
  viability, T/C: 105%
Second compound 0.3 µM, first compound 0.0003 µM
  viability, T/C: 97.6%
Second compound 0.3 µM, first compound 0.000949 µM
  viability, T/C: 85.8%
Second compound 0.3 µM, first compound 0.003 µM
  viability, T/C: 74.3%
Second compound 0.3 µM, first compound 0.00949 µM
  viability, T/C: 70.5%
Second compound 0.3 µM, first compound 0.03 µM
  viability, T/C: 62.1%
Second compound 0.949 µM, first compound 94.9 pM
  viability, T/C: 90.4%
Second compound 0.949 µM, first compound 0.0003 µM
  viability, T/C: 89.7%
Second compound 0.949 µM, first compound 0.000949 µM
  viability, T/C: 93.9%
Second compound 0.949 µM, first compound 0.003 µM
  viability, T/C: 75.1%
Second compound 0.949 µM, first compound 0.00949 µM
  viability, T/C: 66.6%
Second compound 0.949 µM, first compound 0.03 µM
  viability, T/C: 62.2%
Second compound 3 µM, first compound 94.9 pM
  viability, T/C: 102%
Second compound 3 µM, first compound 0.0003 µM
  viability, T/C: 98.8%
Second compound 3 µM, first compound 0.000949 µM
  viability, T/C: 76.8%
Second compound 3 µM, first compound 0.003 µM
  viability, T/C: 77.2%
Second compound 3 µM, first compound 0.00949 µM
  viability, T/C: 72.9%
Second compound 3 µM, first compound 0.03 µM
  viability, T/C: 61%
Second compound 9.49 µM, first compound 94.9 pM
  viability, T/C: 88.7%
Second compound 9.49 µM, first compound 0.0003 µM
  viability, T/C: 92.9%
Second compound 9.49 µM, first compound 0.000949 µM
  viability, T/C: 84.4%
Second compound 9.49 µM, first compound 0.003 µM
  viability, T/C: 80.5%
Second compound 9.49 µM, first compound 0.00949 µM
  viability, T/C: 66.9%
Second compound 9.49 µM, first compound 0.03 µM
  viability, T/C: 55.1%
Second compound 30 µM, first compound 94.9 pM
  viability, T/C: 89%
Second compound 30 µM, first compound 0.0003 µM
  viability, T/C: 91.8%
Second compound 30 µM, first compound 0.000949 µM
  viability, T/C: 81.7%
Second compound 30 µM, first compound 0.003 µM
  viability, T/C: 73.5%
Second compound 30 µM, first compound 0.00949 µM
  viability, T/C: 69.2%
Second compound 30 µM, first compound 0.03 µM
  viability, T/C: 54.8%

## CC(C)CC(NC(=O)CNC(=O)c1cc(Cl)ccc1Cl)B1OC(=O)CC(CC(=O)O)(C(=O)O)O1 (stereo unspecified)
Compound 0.000316 µM
  viability, T/C: 111% and 114%
Compound 0.001 µM
  viability, T/C: 96.4% and 98.7%
Compound 0.00316 µM
  viability, T/C: 99.3% and 98.8%
Compound 0.01 µM
  viability, T/C: 93.5% and 90.3%
Compound 0.0316 µM
  viability, T/C: 85.8% and 77.8%
Compound 0.1 µM
  viability, T/C: 62.1% and 56.6%
Curve of compound
  IC50: > 100 nM

## CC(C)n1nc(-c2ccc3oc(N)nc3c2)c2c(N)ncnc21
Compound 0.000316 µM
  viability, T/C: 106% and 115%
Compound 0.001 µM
  viability, T/C: 99.2% and 110%
Compound 0.00316 µM
  viability, T/C: 97.8% and 105%
Compound 0.01 µM
  viability, T/C: 83.5% and 85.3%
Compound 0.0316 µM
  viability, T/C: 76% and 76.8%
Compound 0.1 µM
  viability, T/C: 69.8% and 74.7%
Curve of compound
  IC50: > 100 nM

## CCCS(=O)(=O)Nc1ccc(F)c(C(=O)c2c[nH]c3ncc(-c4ccc(Cl)cc4)cc23)c1F
Compound 0.316 µM
  viability, T/C: 114% and 106%
Compound 1 µM
  viability, T/C: 109% and 102%
Compound 3.16 µM
  viability, T/C: 97.3% and 102%
Compound 10 µM
  viability, T/C: 87.2% and 71.7%
Compound 31.6 µM
  viability, T/C: 103% and 94.9%
Compound 100 µM
  viability, T/C: 93.9% and 95.7%
Curve of compound
  IC50: > 100000 nM
